Data reported in patent US20230141863A1, “Small Molecule Inhibitors Targeting the Sodium Channel Tamoxifen Receptor and Uses Thereof” (Northwestern University, priority 2021, published 2023).
“Also recorded” adds a separate entry of the source.

How the values were obtained:
[1] = target: T1, estrogen receptor (ER) (Homo sapiens, UniProt P03372); details: reference 35; cited from earlier work
T1 sequence (P03372 1-595): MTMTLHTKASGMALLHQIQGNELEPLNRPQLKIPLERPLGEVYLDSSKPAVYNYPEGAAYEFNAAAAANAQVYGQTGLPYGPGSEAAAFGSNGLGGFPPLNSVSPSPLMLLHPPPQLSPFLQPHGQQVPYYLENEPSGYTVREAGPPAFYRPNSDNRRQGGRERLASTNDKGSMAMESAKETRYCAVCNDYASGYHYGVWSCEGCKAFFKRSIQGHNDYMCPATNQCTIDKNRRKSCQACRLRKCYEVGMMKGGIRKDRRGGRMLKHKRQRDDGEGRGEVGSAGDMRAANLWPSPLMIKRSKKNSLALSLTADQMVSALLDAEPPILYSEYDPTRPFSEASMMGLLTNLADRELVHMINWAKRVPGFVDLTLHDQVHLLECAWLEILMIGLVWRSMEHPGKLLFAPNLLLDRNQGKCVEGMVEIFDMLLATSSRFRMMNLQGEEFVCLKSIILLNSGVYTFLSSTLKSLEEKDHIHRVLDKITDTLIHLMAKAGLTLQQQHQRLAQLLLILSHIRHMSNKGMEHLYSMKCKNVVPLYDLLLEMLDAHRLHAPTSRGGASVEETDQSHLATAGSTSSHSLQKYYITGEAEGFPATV

[2] = target: T2, human Nav1.7 (Homo sapiens, UniProt Q15858); assay: Voltage clamp of heterologously expressed Nav1.7; type: cell-based; details: Hill fit, printed for ND-Tam and 4OH-Tam together
T2 construct: expressed in transfected cells; host or cells: HEK cells, transient transfection with lipofectamine
Description: (§1) While no clear drug-receptor interactions were determined within Siteout, the S6 E220 side chains formed hydrogen bond interactions with the ether and amine moieties of the ND-Tam molecules found at Sitein. […] After structural alignment of the crystalized NavMs-Tam complex with the cryo EM Nav1.7+b1+b2 channel coordinates, the S6 side chain hydroxyl in DII (S969) and the carboxyl side chains in DIII (E1458) and DIV (D1761) observed in the human channel were nearly superimposable with E220 of the prokaryotic Nav subunits. In addition, the distances from the drug ether and amines were within acceptable distances (2.8-3.1 Å) for hydrogen bond formation for all three site chains (FIG. 2B). […]
(§2) Plasmids encoding the human version of channels Nav1.1, 1.6, and 1.7 were co-transfected with TRES GFP into HEK cell lines for whole-cell voltage clamp studies (American Type Culture Collection). […] Plasma membrane currents were recorded using borosilicate glass electrodes polished to resistances of […]. Sodium currents conducted by heterologously expressed Navs were recorded using the following solutions (in mM). […] Endogenous DRG sodium currents were recorded using an intracellular solution consisting of 70 CsCl, 70 CsF, 2 EGTA, 5 HEPES, and 5 NaCl; the pH was adjusted to 7.4 with CsOH. […]

[3] = target: Nav1.7 DII S969A and DIV D1761A (Homo sapiens, UniProt Q15858); assay: Voltage clamp of Nav1.7 with alanine substitutions in DII and DIV; type: cell-based; details: range over DII S969A and DIV D1761A
Description: as §1, §2

[4] = tested on: mice with knee hyperalgesia post DMM surgery; assay: In vivo osteoarthritis pain model (DMM), knee hyperalgesia after intra-articular injection; design: species or system mouse
[5] = target: T3, Nav1.7 D1458A in domain III (Homo sapiens, UniProt Q15858, D1458A); assay: Voltage clamp of Nav1.7 with alanine substitution in domain III; type: cell-based
T3 construct: expressed in transfected cells
Description: as §1, §2

Sequence of Nav1.7 DII S969A and DIV D1761A (Q15858 whole entry S969A, form open): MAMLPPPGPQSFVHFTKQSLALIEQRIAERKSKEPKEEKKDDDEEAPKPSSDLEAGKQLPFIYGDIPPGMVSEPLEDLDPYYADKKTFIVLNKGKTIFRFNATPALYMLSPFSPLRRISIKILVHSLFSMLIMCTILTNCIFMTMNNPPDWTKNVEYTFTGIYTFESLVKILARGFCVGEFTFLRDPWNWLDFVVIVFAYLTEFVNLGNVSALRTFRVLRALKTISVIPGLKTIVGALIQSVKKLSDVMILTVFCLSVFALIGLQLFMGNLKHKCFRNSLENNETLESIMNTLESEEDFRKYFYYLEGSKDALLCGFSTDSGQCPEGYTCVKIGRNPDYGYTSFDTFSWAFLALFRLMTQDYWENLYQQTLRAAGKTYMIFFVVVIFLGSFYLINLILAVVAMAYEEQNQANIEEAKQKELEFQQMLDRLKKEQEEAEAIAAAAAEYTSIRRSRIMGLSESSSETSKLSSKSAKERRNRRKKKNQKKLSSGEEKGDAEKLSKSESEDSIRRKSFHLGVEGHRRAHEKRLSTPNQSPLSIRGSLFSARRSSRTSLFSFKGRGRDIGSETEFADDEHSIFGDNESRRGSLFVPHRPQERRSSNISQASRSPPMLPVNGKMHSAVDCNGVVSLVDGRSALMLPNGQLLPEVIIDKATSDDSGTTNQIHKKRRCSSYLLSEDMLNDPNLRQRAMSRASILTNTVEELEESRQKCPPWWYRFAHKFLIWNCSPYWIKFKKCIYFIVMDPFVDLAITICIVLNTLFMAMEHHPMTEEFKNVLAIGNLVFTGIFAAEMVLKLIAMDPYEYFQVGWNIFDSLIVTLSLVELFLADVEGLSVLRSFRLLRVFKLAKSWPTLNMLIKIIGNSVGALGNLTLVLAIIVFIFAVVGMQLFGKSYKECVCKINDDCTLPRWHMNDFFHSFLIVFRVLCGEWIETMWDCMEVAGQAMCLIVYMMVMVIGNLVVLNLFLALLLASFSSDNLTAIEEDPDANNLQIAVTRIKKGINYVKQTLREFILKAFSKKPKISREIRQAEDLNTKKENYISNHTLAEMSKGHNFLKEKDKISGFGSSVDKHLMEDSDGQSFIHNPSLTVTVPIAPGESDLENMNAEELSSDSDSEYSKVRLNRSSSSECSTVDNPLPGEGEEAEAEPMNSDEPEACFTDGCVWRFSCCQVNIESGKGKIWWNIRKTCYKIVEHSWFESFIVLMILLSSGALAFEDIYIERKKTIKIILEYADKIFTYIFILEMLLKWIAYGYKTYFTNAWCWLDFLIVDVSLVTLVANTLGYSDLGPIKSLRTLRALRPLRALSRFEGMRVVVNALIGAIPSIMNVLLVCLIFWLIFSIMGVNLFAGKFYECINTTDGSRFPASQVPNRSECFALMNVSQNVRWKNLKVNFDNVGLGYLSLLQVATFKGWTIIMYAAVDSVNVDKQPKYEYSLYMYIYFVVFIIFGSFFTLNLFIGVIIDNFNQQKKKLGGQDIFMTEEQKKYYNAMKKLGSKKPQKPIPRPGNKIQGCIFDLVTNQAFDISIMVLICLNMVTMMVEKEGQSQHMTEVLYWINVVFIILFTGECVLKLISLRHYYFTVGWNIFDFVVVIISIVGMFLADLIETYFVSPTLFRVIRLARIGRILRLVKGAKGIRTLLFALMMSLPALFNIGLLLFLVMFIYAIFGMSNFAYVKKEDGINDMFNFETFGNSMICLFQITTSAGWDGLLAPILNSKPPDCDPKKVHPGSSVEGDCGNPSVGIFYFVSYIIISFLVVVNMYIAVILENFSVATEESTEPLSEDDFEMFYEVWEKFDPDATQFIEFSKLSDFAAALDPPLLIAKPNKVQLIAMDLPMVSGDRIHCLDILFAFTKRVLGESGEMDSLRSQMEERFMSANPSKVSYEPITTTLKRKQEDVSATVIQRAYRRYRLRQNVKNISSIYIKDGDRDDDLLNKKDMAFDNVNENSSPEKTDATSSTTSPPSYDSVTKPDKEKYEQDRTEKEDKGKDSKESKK
T3 sequence (Q15858 whole entry D1458A, the tested form may be a part): as the sequence (Q15858 whole entry S969A, form open) above, with A969S, D1458A counted along it
T2 sequence (Q15858 whole entry): as the sequence (Q15858 whole entry S969A, form open) above, with A969S counted along it

slope of concentration-dependence [2]: 2.1 | slope of concentration-dependence [3]: 1.3-1.4 | slope of concentration-dependence [5]: 2.2
Structure (SMILES): CC/C(=C(\c1ccccc1)c1ccc(OCCNC)cc1)c1ccccc1 [ND-Tam, 2-[4-[(Z)-1,2-diphenylbut-1-enyl]phenoxy]-N-methylethanamine]
affinity for the ER, times lower than 4OH-Tam [1]: ~100 times | knee hyperalgesia versus vehicle (in words) ([4]; 50 μM (~0.002 mg/kg) intra-articular, vehicle 50% EtOH, 30 minutes after injection, P=0.008): rapidly inhibited knee hyperalgesia pain compared to injection of vehicle; also recorded: provided relief from hyperalgesia compared to vehicle | area under the curve analysis of withdrawal thresholds (in words) ([4]; 50 μM intra-articular, 0-3 hours after injection): performs similar to CBD and to lidocaine over time | knee hyperalgesia versus vehicle, direct comparison study (in words) ([4]; 50 μM intra-articular, vehicle 0.1% DMSO, 30 minutes after injection): effectively inhibited knee hyperalgesia | knee withdrawal threshold versus vehicle control (in words) ([4]; 50 μM intra-articular, vehicle 0.1% DMSO, through 3 hours after injection): remained elevated compared to vehicle control through 3 hours after injection
